The record followed here is EP4129284B1, “SERTACONAZOL FOR PROVIDING A SPORISTATIC AND/OR SPORICIDAL EFFECT” (Dr. Pfleger Arzneimittel GmbH, priority 2021, dated 2023).

SMILES strings stand for the structures. ≈ marks a conversion by molar mass, not a printed value.

Holding throughout (assay): Microtiter plate laser nephelometry (MLN) growth test
Holding throughout (assay type): cell-based

Experiment [1] deals with Candida albicans DSM 1386. Conditions: for IC50: DSM1386, C. albicans (yeast), SGB, 37 °C, 48 h, growth as area under curve vs untreated control; for MIC: DSM1386, C. albicans, plating of wells without visible growth in the MLN-test. As for the experimental part:
(§1) To allow a reasonable comparison between antimycotic drugs, the concentrations to be used in the following tests was determined first. Thus, the antimycotic effect was determined by microtiter plate laser nephelometry (MLN).
(§2) MLN is a direct method for measuring light, which is scattered by particles suspended in a solution in angles of up to 90 degree. With this technique, already minor particle concentrations can be determined in a suspension. Thus, this method provides a higher sensitivity than usual transmission readers, which detect the reduction of the intensity of light passing a suspension. Further, it is a very reliable technique for application in a 96-well format. It can be used to monitor the growth of microorganisms by the turbidity of the respective medium and to examine the effect of antimicrobial substances on the growth of microorganisms. Compared to other applied methods, MLN allows high throughput screenings, incubation over a long time and in situ monitoring of changes in the dose-response-curves.
(§3) Moreover, in most techniques, the minimum inhibitory concentration (MIC) can only be determined afterwards, whereas MLN allows the in situ acquisition of dose-response-curves and the simultaneous monitoring of changes in the IC50.
(§4) Candida albicans DSM 1386, Candida parapsilosis DSM 5784, Trichophyton rubrum DSM 16111,Trichophyton interdigitale IHEM 22939, Trichophyton soudanense DSM 103786, and Trichophyton mentagrophytes DSM 107608 were obtained from the DSMZ (German Collection of Microorganisms and Cell Cultures; Deutsche Sammlung von Mikroorganismen und Zellkulturen). Epidermophyton floccosum and Scorpolariopsis brevicaulis were obtained from a round robin test.
(§5) The yeasts were cultivated in Sabouraud-Glucose-Bouillon (SGB; Merck) for 24 h at 37°C at aerobic conditions. Dermatophytes were cultivated on Dermasel-Agarplates (Oxoid) for 3 weeks and subsequently treated with 5 mL sterile, physiological saline solution (Lot 14HD24, Fresenius Kabi Deutschland GmbH) for detaching the spores. The spore suspensions were transferred into sterile 50-ml-tubes (Greiner Bio-One), vortexed for 20 s and separated by cell sieves (40 µm, Greiner Bio-One). Subsequently, the spore number was determined via Neubauer-improved counting chambers and the spore suspension was adjusted to approximately 2 × 10^3/ml in SBG (Merck) for the MLN-experiments.
(§6) Solutions of sertaconazol, ciclopiroxolamin and terbinafin were prepared as 10 µg/µL DMSO (Sigma-Aldrich). The respective test concentrations were then obtained by diluting these solutions in SGB (Merck).
(§7) The MLN-test was then performed according to NCCLS M27-A2 and DIN EN 27027 as previously described (Burmester A, Hipler UC, Uhrlaß S, Nenoff P, Singal A, Verma SB, Elsner P, Wiegand C. Indian Trichophyton mentagrophytes squalene epoxidase erg1 double mutants show high proportion of combined fluconazole and terbinafine resistance. Mycoses. 2020; doi: 10.111 1/myc.13150). […] of the respective dilutions of sertaconazol, ciclopiroxolamin or terbinafin were added to the respective wells of a sterile, clear 96-well microplate (Greiner Bio-One) in quadruplicates together with 100 µL of the microorganism suspensions (as above). Blanks for each analysed substance concentration were added to each assay. The microtiter plates were sealed with a transparent foil (Greiner Bio-One). To allow the gas exchange, a perforation was applied to the right edge of the respective wells. The microtiter plates were then inserted in the microtiter plate laser nephelometer (NEPH-ELOstar Galaxy, BMG Labtech) and incubated at 37 °C while shaking for 48 h (yeasts) or, respectively, 120 h (mold, dermatophytes). For determining the growth of the microorganisms, the turbidity of each analysed substrate concentration was assigned to the incubation time. Subsequently, the area under curve was determined by the results and calculated as percentage of the untreated control (growth [%]). […]

The subject of experiment [2] is Candida parapsilosis DSM 5784. The note with it: Lodderomyces parapsilosis, DSM5784; for IC50: C. parapsilosis (yeast), SGB, 37 °C, 48 h, growth as area under curve vs untreated control; for MIC: C. parapsilosis, plating of wells without visible growth in the MLN-test. As for the experimental part: as §1, §2, §3, §4, §5, §6, §7
A further experiment has as its system Epidermophyton floccosum. The note with it: E. floccosum; for MIC: plating of wells without visible growth in the MLN-test; for IC50: spore suspension in SGB, 37 °C, 120 h, growth as area under curve vs untreated control. As for the experimental part: as §1, §2, §3, §4, §5, §6, §7
The next experiment deals with S. brevicaulis. Conditions: Scopulariopsis brevicaulis; for IC50: S. brevicaulis (mold), SGB, 37 °C, 120 h, growth as area under curve vs untreated control; for MIC: S. brevicaulis, plating of wells without visible growth in the MLN-test. As for the experimental part:
as §1, §2, §3, §4, §5, §6, §7

The test system of experiment [3] is Trichophyton interdigitale IHEM 22939. The note with it: IHEM22939, T. interdigitale; for MIC: plating of wells without visible growth in the MLN-test; for IC50: spore suspension in SGB, 37 °C, 120 h, growth as area under curve vs untreated control. As for the experimental part:
as §1, §2, §3, §4, §5, §6, §7

Experiment [4] has as its system Trichophyton mentagrophytes DSM 107608. The note with it: DSM107608, T. mentagrophytes; for MIC: plating of wells without visible growth in the MLN-test; for IC50: spore suspension in SGB, 37 °C, 120 h, growth as area under curve vs untreated control. As for the experimental part: as §1, §2, §3, §4, §5, §6, §7
Experiment [5] has as its system Trichophyton rubrum DSM 16111. Conditions: DSM16111, T. rubrum; for MIC: plating of wells without visible growth in the MLN-test; for IC50: spore suspension in SGB, 37 °C, 120 h, growth as area under curve vs untreated control. As for the experimental part: as §1, §2, §3, §4, §5, §6, §7
Experiment [6] deals with Trichophyton soudanense DSM 103786. Conditions: DSM103786, T. soudanense; for MIC: plating of wells without visible growth in the MLN-test; for IC50: spore suspension in SGB, 37 °C, 120 h, growth as area under curve vs untreated control. As for the experimental part: as §1, §2, §3, §4, §5, §6, §7

For the compound `Cc1cc(C2CCCCC2)n(O)c(=O)c1` [Ciclopiroxolamin, ciclopiroxolamin], the IC50 in experiment [1] is 4.01 ± 0.71 µg/mL (≈ 19.3 µM); in experiment [2], 4.73 ± 0.09 µg/mL (≈ 22.8 µM); with Epidermophyton floccosum, 1.46 ± 0.22 µg/mL (≈ 7.04 µM); in the experiment on S. brevicaulis, 4.85 ± 1.79 µg/mL (≈ 23.4 µM); in experiment [3], 2.62 ± 0.62 µg/mL (≈ 12.6 µM); in experiment [4], 2.09 ± 0.78 µg/mL (≈ 10.1 µM). Moreover, the values for the IC50 in experiment [5] and in experiment [6] were 1.02 ± 0.22 µg/mL (≈ 4.92 µM) and 1.43 ± 0.78 µg/mL (≈ 6.9 µM), respectively. In addition, the minimal inhibitory concentration (MIC) in experiment [1] amounted to 40 µg/mL (≈ 193 µM); in experiment [2], 80 µg/mL (≈ 386 µM); against Epidermophyton floccosum, 7.5 µg/mL (≈ 36.2 µM); against S. brevicaulis it was 60 µg/mL (≈ 289 µM); in experiment [3] it was 10 µg/mL (≈ 48.2 µM); in experiment [4], 10 µg/mL (≈ 48.2 µM). Moreover, the results for the MIC in experiment [5] and in experiment [6] were 10 µg/mL (≈ 48.2 µM) and 5.5 µg/mL (≈ 26.5 µM), respectively.

For the compound `Clc1ccc(C(Cn2ccnc2)OCc2csc3c(Cl)cccc23)c(Cl)c1` (centres unmarked) [Sertaconazol, sertaconazol], the IC50 in experiment [1] turned out to be 0.54 ± 0.12 µg/mL (≈ 1.23 µM); in experiment [2], 0.0025 ± 0.0001 µg/mL (≈ 0.00571 µM); in the experiment on Epidermophyton floccosum, 0.022 ± 0.003 µg/mL (≈ 0.0503 µM); in the experiment with S. brevicaulis, 0.11 ± 0.03 µg/mL (≈ 0.251 µM); in experiment [3], 0.39 ± 0.01 µg/mL (≈ 0.891 µM); in experiment [4], 0.018 ± 0.003 µg/mL (≈ 0.0411 µM). For the same compound, the figures for the IC50 in experiment [5] and in experiment [6] were 0.0028 ± 0.0003 µg/mL (≈ 0.0064 µM) and 0.0014 ± 0.0001 µg/mL (≈ 0.0032 µM), respectively. Moreover, the MIC in experiment [1] was 40 µg/mL (≈ 91.4 µM); in experiment [2], 20 µg/mL (≈ 45.7 µM); in the experiment on Epidermophyton floccosum it was 1.6 µg/mL (≈ 3.65 µM); against S. brevicaulis it was 7.5 µg/mL (≈ 17.1 µM); in experiment [3] it was 12.5 µg/mL (≈ 28.6 µM); in experiment [4], 3.8 µg/mL (≈ 8.68 µM). The MIC worked out at 1.3 µg/mL (≈ 2.97 µM) in experiment [5] and 3.1 µg/mL (≈ 7.08 µM) in experiment [6].

On to `CN(C/C=C/C#CC(C)(C)C)Cc1cccc2ccccc12` [Terbinafin, terbinafin], for which the 50% inhibitory concentration (IC50) in experiment [1] was found to be 24.2 ± 2.99 µg/mL (≈ 82.9 µM); in experiment [2], 0.098 ± 0.002 µg/mL (≈ 0.336 µM); in the experiment with Epidermophyton floccosum it was 0.0021 ± 0.0001 µg/mL (≈ 0.00721 µM); in the experiment with S. brevicaulis, 0.69 ± 0.03 µg/mL (≈ 2.37 µM); in experiment [3] it was 0.0038 ± 0.0008 µg/mL (≈ 0.013 µM); in experiment [4], 4.66 ± 0.04 µg/mL (≈ 16 µM). Further, the IC50 came out at 0.0015 ± 0.0002 µg/mL (≈ 0.00515 µM) in experiment [5] and 0.0016 ± 0.0005 µg/mL (≈ 0.00549 µM) in experiment [6]. Also, the MIC turned out to be 3.8 µg/mL (≈ 13 µM) in experiment [2]; 0.02 µg/mL (≈ 0.0686 µM) with Epidermophyton floccosum; 40 µg/mL (≈ 137 µM) in the experiment with S. brevicaulis; 0.02 µg/mL (≈ 0.0686 µM) in experiment [3]; 20 µg/mL (≈ 68.6 µM) in experiment [4]; 0.006 µg/mL (≈ 0.0206 µM) in experiment [5]. The compound further registered an MIC in experiment [6] of 0.015 µg/mL (≈ 0.0515 µM).
